Data as given in patent publication US20240092846A1, “ENGINEERED CYCLOTIDES WITH POTENT BROAD ANTIMICROBIAL ACTIVITY” (priority 2022, published 2024).
Values after ≈ are worked out from the molar mass of the structure shown. Read-outs that look alike come from different tables or passages of the source. Positions of bridges follow the written chain, without caps; N, C: chain ends.

Columns and labels:
S. aureus = conditions: CAMHB
Description: (§1) Broad-spectrum antimicrobial activity was evaluated using the broth microdilution assays against two different pathogens from four different species of bacteria (P. aeruginosa, S. aureus, K. pneumoniae, and E. coli) to determine if the cyclotides retained its potent activity. Broth microdilution assays were utilized to determine the minimum inhibitory concentrations (MICs) of our cyclotides according to the CLSI (formerly NCCLS) guidelines modifications as described below (40). The assay utilized cation-adjusted Mueller-Hinton broth (CAMHB) (Becton, Dickinson and Company, Franklin Lakes, NJ) which was prepared according to the manufacturer's instructions. Cyclotide solutions were prepared as 10× solutions in 0.01% acetic acid. Cyclotide were serially diluted two-fold at concentrations ranging from 25-0.05 μM that contained CAMHB and 0.04% bovine serum albumin (BSA) in polypropylene microtiter plates (Corning, Corning, NY). All bacteria were incubated overnight at 37° C. at 200 rpm in CAMHB and bacterial inoculum was adjusted with additional CAMHB to 0.5 McFarland standard through spectrophotometry at 600 nm. […] Study strains included a total of 20 P. aeruginosa and 20 methicillin resistant S. aureus strains from patients with cystic fibrosis at the Keck Medical Center of the University of Southern California. […] Colistin sulphate (Sigma-Aldrich, St Louis, MO) was used as a reference antibiotic for P. aeruginosa and E. coli, while vancomycin hydrochloride and meropenem trihydrate were used as reference antibiotics for S. aureus and K. pneumoniae.

E. coli = conditions: CAMHB
Description: as §1

K. pneumoniae = conditions: CAMHB
Description: as §1

P. aeruginosa = conditions: CAMHB; for MIC against P. aeruginosa: summary over the tested strains
Description: as §1

[1] = test system: clinical isolates of methicillin-resistant S. aureus (MRSA); conditions: MRSA clinical isolates, n=20
Description: as §1

[2] = S. aureus BAA977, clindamycin resistant strain
[3] = S. aureus HH35, methicillin resistant strain
[4] = summary over the tested strains
[5] = S. aureus USA300, methicillin resistant strain

| Compound | MIC (S. aureus; S. aureus 25973) [µM] | MIC (S. aureus; [2]) [µM] | MIC (S. aureus; [3]) [µM] | MIC against S. aureus (S. aureus; [4]) | MIC (E. coli; E. coli K12) [µM] | MIC against E. coli (E. coli; [4]) | MIC (K. pneumoniae; K. pneumoniae K6) [µM] | MIC against K. pneumoniae (K. pneumoniae; [4]) | MIC (P. aeruginosa; P. aeruginosa PA27853) [µM] | MIC against P. aeruginosa (P. aeruginosa) [µM] | MIC (S. aureus; [5]) [µM] | MIC (E. coli; E. coli DS377) [µM] | MIC (K. pneumoniae; K. pneumoniae BAA1705) [µM] | S. aureus MICrange [1] [µM] | MIC (P. aeruginosa; P. aeruginosa PAO1) [µM] |
| --- | --- | --- | --- | --- | --- | --- | --- | --- | --- | --- | --- | --- | --- | --- | --- |
| cyclo(GGVCPKILQRCRRDSDCPGACICRGNGYCGSGSGGCLCYCRRRFCVCVCRR) (disulfide 4-21, 11-23, 17-29, 36-49, 38-47, 40-45 (inferred); ring closure inferred) [MCo-PG3] | >25 | >25 | >25 | above 25 μM | >25 | above 25 μM | >25 | above 25 μM | 25 | 25 |  |  |  |  |  |
| CC[C@H](C)[C@@H]1NC(=O)[C@@H]2CSSC[C@@H]3NC(=O)[C@H](C(C)C)NC(=O)CNC(=O)CNC(=O)CNC(=O)[C@H](CCCNC(=N)N)NC(=O)[C@H](CCCNC(=N)N)NC(=O)CNC(=O)[C@H](C(C)C)NC(=O)[C@@H]4CSSC[C@H](NC(=O)[C@H](CC(C)C)NC(=O)[C@H](CCCNC(=N)N)NC(=O)CNC(=O)CNC(=O)CNC(=O)[C@H](CO)NC(=O)CNC(=O)[C@H](CO)NC(=O)CNC(=O)[C@@H]5CSSC[C@H](NC(=O)[C@H](CC(=O)O)NC(=O)[C@H](CO)NC(=O)[C@H](CC(=O)O)NC(=O)[C@H](CCCNC(=N)N)NC(=O)[C@H](CCCNC(=N)N)NC(=O)[C@H](CSSC[C@H](NC1=O)C(=O)N[C@@H](CCCNC(=N)N)C(=O)NCC(=O)N[C@@H](CC(N)=O)C(=O)NCC(=O)N[C@@H](Cc1ccc(O)cc1)C(=O)N5)NC(=O)[C@H](CCCNC(=N)N)NC(=O)[C@H](CCC(N)=O)NC(=O)[C@H](CC(C)C)NC(=O)[C@H]([C@@H](C)CC)NC(=O)[C@H](CCCCN)NC(=O)[C@@H]1CCCN1C3=O)C(=O)N1CCC[C@H]1C(=O)NCC(=O)N[C@@H](C)C(=O)N2)C(=O)N[C@@H](Cc1ccc(O)cc1)C(=O)N[C@H]1CSSC[C@H](NC(=O)[C@H](Cc2ccccc2)NC(=O)[C@H](CCCNC(=N)N)NC(=O)[C@H](CCCNC(=N)N)NC(=O)[C@H](CCCNC(=N)N)NC1=O)C(=O)N[C@@H](C(C)C)C(=O)N4 [MCo-PG4] | 12.5 (≈ 70.2 µg/mL) | 12.5 (≈ 70.2 µg/mL) | 12.5 (≈ 70.2 µg/mL) |  | 1.6 (≈ 8.99 µg/mL) |  | 12.5 (≈ 70.2 µg/mL) |  | 1.6 (≈ 8.99 µg/mL) | 1.6 (≈ 8.99 µg/mL) | 12.5 (≈ 70.2 µg/mL) | 1.6 (≈ 8.99 µg/mL) | 12.5 (≈ 70.2 µg/mL) |  |  |
| CN[C@H](CC(C)C)C(=O)N[C@H]1C(=O)N[C@@H](CC(N)=O)C(=O)N[C@H]2C(=O)N[C@H]3C(=O)N[C@H](C(=O)N[C@H](C(=O)O)c4cc(O)cc(O)c4-c4cc3ccc4O)[C@H](O)c3ccc(c(Cl)c3)Oc3cc2cc(c3O[C@@H]2O[C@H](CO)[C@@H](O)[C@H](O)[C@H]2O[C@H]2C[C@](C)(N)[C@H](O)[C@H](C)O2)Oc2ccc(cc2Cl)[C@H]1O [Vancomycin, reference compound] |  |  |  |  |  |  |  |  |  |  |  |  |  | 0.5 to 1.4 |  |
| cyclo[GGVCPKILQRCRRDSDCPGACICRGNGYCGSGSGRLCYCRRRFCVCVGR] (cyclo(GGVCPKILQRCRRDSDCPGACICRGNGYCGSGSGRLCYCRRRFCVCVGR); not fully specified; printed as cyclo[GGVCPKILQRCRRDSDCPGACICRGNGYCGSGSGRLCYCRRRFCVCVGR]; cysteine pairing not given here) [MCo-PG5] | 12.5 | 12.5 | 12.5 |  | 1.6 |  | 6.2 |  | 3.1 |  | 12.5 | 1.6 | 6.2 |  | 3.1 |
